From patent US20190008152A1, “PLANT DISEASE CONTROL COMPOSITION AND PLANT DISEASE CONTROL METHOD” (SUMITOMO CHEMICAL COMPANY, LIMITED, priority 2015, published 2019) come the findings set out here.

Structures are written as SMILES.

Assay [1] concerns wheat rust fungus (Puccinia recondita). Nature of the assay: Test Example 4: foliar spray of flowable formulations on wheat, inoculation with wheat rust fungus, lesion area. The assay is classed as in vivo, Puccinia recondita on wheat (cultivar. Shirogane). The settings on record: single use. As for the experimental part: Five (5) parts of the present compound 1-3, 35 parts of a mixture of white carbon and ammonium polyoxyethylene alkyl ether sulfate (the weight ratio of 1:1) and 55 parts of water were mixed, and the mixture was then finely-ground by a wet grinding method to obtain a flowable formulation comprising the present compound 1-3. Separately, the flowable formulation comprising the present compound 2-1 was prepared according to the above-mentioned similar method except that the present compound 2-1 was used instead of the present compound 1-3 to form a flowable formulation comprising the present compound 2-1.
Each of the above-mentioned respective flowable formulations, and the flowable formulation comprising the present compound 1-3 and the present compound 2-1 that was prepared according to the above-mentioned Formulation Example 3 was diluted with water such that each concentration of the respective compounds in the dilution solutions was adjusted to that indicated in Table 6, to prepare the dilution solutions, respectively.
A plastic pot was filled with soil, and thereto wheat (cultivar. Shirogane) was seeded, and the plants were grown in a greenhouse for ten days. […]
From each of the lesion area of the treated group and the untreated group, respectively, the efficacy of the treated group was calculated by the below-mentioned Equation 2. […]

In assay [2] the test system is wheat leaf blight fungus. In words: Test Example 3: growth of wheat leaf blight fungus in YBG medium, microtiter plate, absorbance at 550 nm. The format is cell-based, Mycosphaerella graminicola. The conditions noted are these: single use, 18° C., six days. As for the experimental part:
The present compound 1-3 or the present compound 2-1 was dissolved into dimethyl sulfoxide such that each concentration of the present compound 1-3 or the present compound 2-1 was adjusted to one hundred fifty times as much as the concentration indicated in the below-mentioned Table 5. The resultant agent solution was dispensed into a microtiter plate (with 96 wells) in 1 μl portion thereof per well. One hundred forty nine (149) μl of YBG medium (which was prepared by dissolving 10 g of yeast extract, 10 g of Bacto Peptone, and 20 mL of glycerol into 1 L of water, followed by sterilizing the medium) was dispensed into the wells to which the agent solution(s) was/were dispensed. The plate was cultivated at 18° C. for six days, thereby allowing wheat leaf blight fungus to undergo proliferation, and the absorbance at 550 nm of each well of the micro titer plate was then measured to examine a degree of growth of the wheat leaf blight fungus (hereinafter referred to as “treated group”).
Whereas, wheat leaf blight fungus was proliferated similarly to the case of the treated group except that dimethyl sulfoxide was used instead of the agent solution, and the degree of the growth was examined (hereinafter referred to as “untreated group”). The efficacy was calculated from the respective obtained degree of growth by the below-mentioned “Equation 1”.
Efficacy (%)=100×(X−Y)/X Equation 1 […]

Regarding `Cc1cccc(-n2nnn(C)c2=O)c1COc1ccn(-c2ccc(Cl)cc2)n1` [Present compound 1-3, 1-(2-{[1-(4-chlorophenyl)-1H-pyrazol-3-yl]oxymethyl}-3-methylphenyl)-4-methyl-1,4-dihydrotetrazol-5-one], the “Efficacy (%)” value is on record as 35% in assay [1] (concentration 0.002 ppm), 70% in assay [1] (concentration 0.01 ppm), 20% in assay [2] (concentration in medium 0.0001 ppm) and 37% in assay [2] (concentration in medium 0.01 ppm).
